Measured values as given in US20070072815A1, “Methods and kits to increase the efficiency of oligonucleotide-directed nucleic acid sequence alteration” (priority 2004, published 2007).
Several values for one entry are separate records, joined by “and”; a condition that tells them apart may be missing. Equal entries are not always repeated.

Columns and labels:
[1] = test system: mutant eGFP gene in DLD-1-1 cells; assay: eGFP gene correction (oligonucleotide-directed sequence alteration) in DLD-1-1 cells, FACS readout; type: cell-based
[2] = test system: α-galactosidase A (GLA) activity in Fabry's cell line DMN-1; assay: GLA activity in Fabry's cells after ODSA; type: cell-based, human

NC(=O)NO [HU, hydroxyurea]
correction efficiency (frequency of gene repair) ([1]; 1 mM HU 24 hours before electroporation, asynchronous cells): 2.2% and ~3%
correction efficiency in synchronized cells relative to asynchronous cells ([1]; 1 mM HU or 10 mM thymidine, DTB synchronized vs asynchronous): more than three times
effect of dose on correction efficiency ([1]; HU 0.3-5 mM or VP16 0.5-10 μM for 24 hours prior to electroporation): increase correction efficiency in a dose-dependent manner
increase in GLA activity compared to untreated cells ([2]; 0.3 mM and 1 mM HU, after seven days): approximately three-fold
increase of GLA activity compared to untreated cells ([2]; cells synchronized by DTB, 1 mM HU prior to transfection with 49T/gg): five-fold
